Common to all, as to assay: relative viability (nuclei count vs DMSO), 5 days (fraction); higher = more cells survive
Compound in the experiment “TPCA-1 + Luminespib”: C1=CC(=CC=C1C2=CC(=C(S2)NC(=O)N)C(=O)N)F [TPCA-1] + CCNC(=O)c1noc(-c2cc(C(C)C)c(O)cc2O)c1-c1ccc(CN2CCOCC2)cc1 [Luminespib] (partner 0.01 µM)
The method in brief:
(§1)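 Nuclei were stained with Hoechst during a one-step fixation (final 0.05% Triton X-100, 1% formaldehyde, 1 ug/ml Hoechst) carried out 5 days after dosing, then counted on 4× images. The cells, lung cancer lines in 1536-well plates, had been dosed by pin tool the day after seeding with one drug alone or a fixed anchor-drug dose plus five library-drug doses (not always all listed) in √10 steps. Relative viability is the nuclei count in treated wells divided by that in vehicle wells, and each value is the median of duplicate plates.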

Compound in the experiment “TPCA-1 + Pictilisib”: C1=CC(=CC=C1C2=CC(=C(S2)NC(=O)N)C(=O)N)F [TPCA-1] + CS(=O)(=O)N1CCN(Cc2cc3nc(-c4cccc5[nH]ncc45)nc(N4CCOCC4)c3s2)CC1 [Pictilisib] (partner 1 µM)
The method in brief: as §1

Compound in experiment [1]: C1/C(=C\C2=CC=CS2)/C(=O)/C(=C/C3=CC=CS3)/C1 + CC1(C)CCC(c2ccc(Cl)cc2)=C(CN2CCN(c3ccc(C(=O)NS(=O)(=O)c4ccc(N[C@H](CCN5CCOCC5)CSc5ccccc5)c(S(=O)(=O)C(F)(F)F)c4)cc3)CC2)C1 [Navitoclax] (partner 0.5 µM)
The procedure, abridged:
as §1

With EMC-BAC-2, the relative viability with TPCA-1 + Luminespib (first compound 0.04 µM) is 1.24; with TPCA-1 + Luminespib (first compound 0.1265 µM), 1.13; with TPCA-1 + Luminespib (first compound 0.4 µM) it was 1.16; in the experiment with TPCA-1 + Luminespib (first compound 1.265 µM), 1.35; in the experiment with TPCA-1 + Luminespib (first compound 4 µM), 1.13; in the experiment with TPCA-1 + Pictilisib (first compound 0.04 µM), 0.59. For the same cell line, the relative viability with TPCA-1 + Pictilisib (first compound 0.1265 µM) was found to be 0.475; with TPCA-1 + Pictilisib (first compound 0.4 µM), 0.55; in the experiment with TPCA-1 + Pictilisib (first compound 1.265 µM), 0.318; with TPCA-1 + Pictilisib (first compound 4 µM), 0.406; in experiment [1] (first compound 0.2 µM), 1.21; in experiment [1] (first compound 0.6325 µM) it was 1.11. Moreover, the relative viability in experiment [1] (first compound 2 µM) worked out at 1.13; in experiment [1] (first compound 6.325 µM) it was 1.05; in experiment [1] (first compound 20 µM) it was 1.1.
EPLC-272H: the relative viability in the experiment with TPCA-1 + Luminespib (first compound 0.04 µM) is 0.265; with TPCA-1 + Luminespib (first compound 0.1265 µM), 0.262; with TPCA-1 + Luminespib (first compound 0.4 µM), 0.443; with TPCA-1 + Luminespib (first compound 1.265 µM) it was 0.38; in the experiment with TPCA-1 + Luminespib (first compound 4 µM) it was 0.207; in the experiment with TPCA-1 + Pictilisib (first compound 0.04 µM) it was 0.381. For the same cell line, the relative viability in the experiment with TPCA-1 + Pictilisib (first compound 0.1265 µM) was 0.285; with TPCA-1 + Pictilisib (first compound 0.4 µM), 0.341; in the experiment with TPCA-1 + Pictilisib (first compound 1.265 µM), 0.38; with TPCA-1 + Pictilisib (first compound 4 µM) it was 0.32; in experiment [1] (first compound 0.2 µM) it was 1.28; in experiment [1] (first compound 0.6325 µM), 0.965. The relative viability in experiment [1] (first compound 2 µM) was determined as 1.15; in experiment [1] (first compound 6.325 µM) it was 1.09; in experiment [1] (first compound 20 µM), 0.95.
Regarding H3255, the relative viability in the experiment with TPCA-1 + Luminespib (first compound 0.04 µM) came out at 0.696; with TPCA-1 + Luminespib (first compound 0.1265 µM) it was 0.893; with TPCA-1 + Luminespib (first compound 0.4 µM), 0.836; in the experiment with TPCA-1 + Luminespib (first compound 1.265 µM) it was 0.822; with TPCA-1 + Luminespib (first compound 4 µM), 0.622; with TPCA-1 + Pictilisib (first compound 0.04 µM) it was 0.461. Moreover, the relative viability with TPCA-1 + Pictilisib (first compound 0.1265 µM) is 0.404; in the experiment with TPCA-1 + Pictilisib (first compound 0.4 µM), 0.509; with TPCA-1 + Pictilisib (first compound 1.265 µM) it was 0.399; with TPCA-1 + Pictilisib (first compound 4 µM), 0.333; in experiment [1] (first compound 0.2 µM), 0.583; in experiment [1] (first compound 0.6325 µM), 0.501. Also, the relative viability in experiment [1] (first compound 2 µM) came out at 0.669; in experiment [1] (first compound 6.325 µM), 0.393; in experiment [1] (first compound 20 µM), 0.453.
In the case of HARA, the relative viability was 0.791 in the experiment with TPCA-1 + Luminespib (first compound 0.04 µM); 0.754 with TPCA-1 + Luminespib (first compound 0.1265 µM); 0.864 with TPCA-1 + Luminespib (first compound 0.4 µM); 0.83 with TPCA-1 + Luminespib (first compound 1.265 µM); 0.382 with TPCA-1 + Luminespib (first compound 4 µM); 0.591 with TPCA-1 + Pictilisib (first compound 0.04 µM). The relative viability was determined as 0.4 with TPCA-1 + Pictilisib (first compound 0.1265 µM); 0.433 in the experiment with TPCA-1 + Pictilisib (first compound 0.4 µM); 0.393 in the experiment with TPCA-1 + Pictilisib (first compound 1.265 µM); 0.331 with TPCA-1 + Pictilisib (first compound 4 µM); 1.1 in experiment [1] (first compound 0.2 µM); 1.15 in experiment [1] (first compound 0.6325 µM). The relative viability was 1.13 in experiment [1] (first compound 2 µM), 0.497 in experiment [1] (first compound 6.325 µM) and 1.11 in experiment [1] (first compound 20 µM).
For the cell line HCC-15, the relative viability came to 0.458 in the experiment with TPCA-1 + Luminespib (first compound 0.04 µM); 0.326 with TPCA-1 + Luminespib (first compound 0.1265 µM); 0.341 with TPCA-1 + Luminespib (first compound 0.4 µM); 0.366 in the experiment with TPCA-1 + Luminespib (first compound 1.265 µM); 0.374 with TPCA-1 + Luminespib (first compound 4 µM); 0.901 in the experiment with TPCA-1 + Pictilisib (first compound 0.04 µM). The relative viability with TPCA-1 + Pictilisib (first compound 0.1265 µM) worked out at 0.559; with TPCA-1 + Pictilisib (first compound 0.4 µM), 0.766; with TPCA-1 + Pictilisib (first compound 1.265 µM), 0.864; with TPCA-1 + Pictilisib (first compound 4 µM), 0.275; in experiment [1] (first compound 0.2 µM) it was 0.696; in experiment [1] (first compound 0.6325 µM), 0.676. The relative viability was found to be 0.682 in experiment [1] (first compound 2 µM), 0.621 in experiment [1] (first compound 6.325 µM) and 0.615 in experiment [1] (first compound 20 µM).
With HCC-44, the relative viability in the experiment with TPCA-1 + Luminespib (first compound 0.04 µM) came out at 0.958; with TPCA-1 + Luminespib (first compound 0.1265 µM), 1.03; in the experiment with TPCA-1 + Luminespib (first compound 0.4 µM) it was 1.02; with TPCA-1 + Luminespib (first compound 4 µM), 0.983; with TPCA-1 + Pictilisib (first compound 0.04 µM), 0.684; with TPCA-1 + Pictilisib (first compound 0.1265 µM) it was 0.571. Moreover, the relative viability with TPCA-1 + Pictilisib (first compound 0.4 µM) amounted to 0.619; with TPCA-1 + Pictilisib (first compound 1.265 µM), 0.792; with TPCA-1 + Pictilisib (first compound 4 µM), 0.508; in experiment [1] (first compound 0.2 µM), 0.903; in experiment [1] (first compound 0.6325 µM), 0.987; in experiment [1] (first compound 2 µM), 0.935. Also, the relative viability was 0.832 in experiment [1] (first compound 6.325 µM) and 0.895 in experiment [1] (first compound 20 µM).
Turning to HCC-827, the relative viability in the experiment with TPCA-1 + Luminespib (first compound 0.04 µM) came out at 0.675; with TPCA-1 + Luminespib (first compound 0.1265 µM) it was 0.496; in the experiment with TPCA-1 + Luminespib (first compound 0.4 µM), 0.531; in the experiment with TPCA-1 + Luminespib (first compound 1.265 µM) it was 0.598; with TPCA-1 + Luminespib (first compound 4 µM) it was 0.201; in the experiment with TPCA-1 + Pictilisib (first compound 0.04 µM), 1.21. Also, the relative viability turned out to be 0.868 in the experiment with TPCA-1 + Pictilisib (first compound 0.1265 µM); 1.04 in the experiment with TPCA-1 + Pictilisib (first compound 0.4 µM); 0.81 with TPCA-1 + Pictilisib (first compound 1.265 µM); 0.744 with TPCA-1 + Pictilisib (first compound 4 µM); 1.1 in experiment [1] (first compound 0.2 µM); 0.966 in experiment [1] (first compound 0.6325 µM). In addition, the relative viability is 1.01 in experiment [1] (first compound 2 µM), 0.959 in experiment [1] (first compound 6.325 µM) and 1.02 in experiment [1] (first compound 20 µM).
HOP-62: the relative viability in the experiment with TPCA-1 + Luminespib (first compound 0.04 µM) is 0.98; with TPCA-1 + Luminespib (first compound 0.1265 µM), 0.924; in the experiment with TPCA-1 + Luminespib (first compound 0.4 µM), 0.93; with TPCA-1 + Luminespib (first compound 1.265 µM), 0.893; with TPCA-1 + Luminespib (first compound 4 µM) it was 0.812; with TPCA-1 + Pictilisib (first compound 0.04 µM), 0.964. Further, the relative viability with TPCA-1 + Pictilisib (first compound 0.1265 µM) came to 0.57; with TPCA-1 + Pictilisib (first compound 0.4 µM) it was 0.734; with TPCA-1 + Pictilisib (first compound 1.265 µM) it was 0.123; in the experiment with TPCA-1 + Pictilisib (first compound 4 µM) it was 0.186; in experiment [1] (first compound 0.2 µM), 0.985; in experiment [1] (first compound 0.6325 µM) it was 1.23. The relative viability in experiment [1] (first compound 2 µM) was 0.8; in experiment [1] (first compound 6.325 µM), 0.952; in experiment [1] (first compound 20 µM), 1.06.
Take LC-2-ad: the relative viability was determined as 1.13 with TPCA-1 + Luminespib (first compound 0.04 µM); 1.01 in the experiment with TPCA-1 + Luminespib (first compound 0.1265 µM); 0.826 with TPCA-1 + Luminespib (first compound 0.4 µM); 0.908 with TPCA-1 + Luminespib (first compound 1.265 µM); 0.663 in the experiment with TPCA-1 + Luminespib (first compound 4 µM); 0.644 with TPCA-1 + Pictilisib (first compound 0.04 µM). Moreover, the relative viability in the experiment with TPCA-1 + Pictilisib (first compound 0.1265 µM) came to 0.376; in the experiment with TPCA-1 + Pictilisib (first compound 0.4 µM) it was 0.488; with TPCA-1 + Pictilisib (first compound 1.265 µM), 0.322; with TPCA-1 + Pictilisib (first compound 4 µM), 0.0862; in experiment [1] (first compound 0.2 µM), 0.451; in experiment [1] (first compound 0.6325 µM), 0.451. Also, the figures for the relative viability in experiment [1] (first compound 2 µM), in experiment [1] (first compound 6.325 µM) and in experiment [1] (first compound 20 µM) were 0.399, 0.406 and 0.49, respectively.
Take LCLC-97TM1: the relative viability with TPCA-1 + Luminespib (first compound 0.04 µM) turned out to be 0.877; in the experiment with TPCA-1 + Luminespib (first compound 0.1265 µM), 0.614; with TPCA-1 + Luminespib (first compound 0.4 µM), 0.71; in the experiment with TPCA-1 + Luminespib (first compound 1.265 µM), 0.541; in the experiment with TPCA-1 + Luminespib (first compound 4 µM), 0.482; in the experiment with TPCA-1 + Pictilisib (first compound 0.04 µM) it was 0.183. The relative viability worked out at 0.157 in the experiment with TPCA-1 + Pictilisib (first compound 0.1265 µM); 0.199 with TPCA-1 + Pictilisib (first compound 0.4 µM); 0.151 with TPCA-1 + Pictilisib (first compound 1.265 µM); 0.111 with TPCA-1 + Pictilisib (first compound 4 µM); 0.345 in experiment [1] (first compound 0.2 µM); 0.337 in experiment [1] (first compound 0.6325 µM). For the same cell line, the relative viability in experiment [1] (first compound 2 µM) came out at 0.367; in experiment [1] (first compound 6.325 µM) it was 0.297; in experiment [1] (first compound 20 µM), 0.261.
